Source: paper PMC3715805 (International Journal of Molecular Sciences, 2007)

Target: T1, cyclooxygenase-1 (COX-1) (Ovis aries, UniProt P05979)
T1 sequence (P05979 25-600): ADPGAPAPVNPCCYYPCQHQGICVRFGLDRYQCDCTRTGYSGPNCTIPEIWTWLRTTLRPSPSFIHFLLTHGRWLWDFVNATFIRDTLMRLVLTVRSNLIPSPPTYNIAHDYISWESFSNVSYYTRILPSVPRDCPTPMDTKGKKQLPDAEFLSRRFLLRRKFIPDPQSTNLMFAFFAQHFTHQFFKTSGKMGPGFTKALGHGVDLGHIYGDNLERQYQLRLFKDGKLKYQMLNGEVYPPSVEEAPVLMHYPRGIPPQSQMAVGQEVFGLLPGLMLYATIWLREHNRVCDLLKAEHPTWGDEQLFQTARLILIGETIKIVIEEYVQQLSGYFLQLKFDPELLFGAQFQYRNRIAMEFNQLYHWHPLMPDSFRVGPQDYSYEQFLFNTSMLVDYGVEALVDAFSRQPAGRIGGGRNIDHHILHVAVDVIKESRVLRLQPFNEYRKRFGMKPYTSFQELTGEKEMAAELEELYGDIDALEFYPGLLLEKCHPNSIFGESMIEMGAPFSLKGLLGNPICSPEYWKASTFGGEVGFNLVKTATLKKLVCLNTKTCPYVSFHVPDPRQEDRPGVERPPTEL
Test: O2 consumption
Format: biochemical

COc1cc(O)c2c(=O)cc(-c3ccc(OC)c(-c4c(O)cc(O)c5c(=O)cc(-c6ccc(O)cc6)oc45)c3)oc2c1 [compound 1, ginkgetin]
IC50: > 100 µM
